Test results: patent US20170066717A1, “NEW PHENYLAZETIDINECARBOXYLATE OR -CARBOXAMIDE COMPOUNDS” (INVENTIVA, priority 2014, published 2017)
pEC50: −log10 of the molar value.

What was measured:
[1] = molecular target: T1, NURR-1/RXRα (Homo sapiens, UniProt P19793); test: Transactivation test, NURR-1-Gal4/RXRα, luciferase reporter in Cos-7 cells; assay type: cell-based; conditions: for Emax: COS-7, induction level relative to reference XCT0135908 at 2×10^−5 M (=100%), read-out: hNurr1_RXRaFL Emax (%); for pEC50: Cos-7 cells, NURR-1-Gal4/RXRα, luciferase reporter, read-out: hNurr1_RXRaFL EC50
T1 construct: expressed in transfected cells; host or cells: Cos-7 cells

[2] = molecular target: T2, NURR-1/RXRγ (Homo sapiens, UniProt P48443); test: Transactivation test, NURR-1-Gal4/RXRγ, luciferase reporter in Cos-7 cells; assay type: cell-based; conditions: for Emax: COS-7, induction level relative to reference XCT0135908 at 2×10^−5 M (=100%), read-out: hNurr1_RXRgFL Emax (%); for pEC50: Cos-7 cells, NURR-1-Gal4/RXRγ, luciferase reporter, read-out: hNurr1_RXRgFL EC50
T2 construct: expressed in transfected cells; host or cells: Cos-7 cells
T2 sequence (P48443 whole entry, the tested form may be a part): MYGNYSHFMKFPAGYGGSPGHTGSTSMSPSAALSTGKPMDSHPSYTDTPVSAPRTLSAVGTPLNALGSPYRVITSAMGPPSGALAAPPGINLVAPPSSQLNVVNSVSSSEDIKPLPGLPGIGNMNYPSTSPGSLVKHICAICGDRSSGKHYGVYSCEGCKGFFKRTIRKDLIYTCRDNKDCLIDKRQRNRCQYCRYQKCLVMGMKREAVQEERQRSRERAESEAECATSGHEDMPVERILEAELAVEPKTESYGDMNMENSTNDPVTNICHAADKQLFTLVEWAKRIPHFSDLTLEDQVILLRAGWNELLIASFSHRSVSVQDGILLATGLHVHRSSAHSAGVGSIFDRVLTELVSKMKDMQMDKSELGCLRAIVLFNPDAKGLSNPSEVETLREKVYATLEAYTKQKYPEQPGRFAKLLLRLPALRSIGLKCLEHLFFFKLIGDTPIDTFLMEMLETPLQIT
T2 sequence (P43354 whole entry partner, the tested form may be a part): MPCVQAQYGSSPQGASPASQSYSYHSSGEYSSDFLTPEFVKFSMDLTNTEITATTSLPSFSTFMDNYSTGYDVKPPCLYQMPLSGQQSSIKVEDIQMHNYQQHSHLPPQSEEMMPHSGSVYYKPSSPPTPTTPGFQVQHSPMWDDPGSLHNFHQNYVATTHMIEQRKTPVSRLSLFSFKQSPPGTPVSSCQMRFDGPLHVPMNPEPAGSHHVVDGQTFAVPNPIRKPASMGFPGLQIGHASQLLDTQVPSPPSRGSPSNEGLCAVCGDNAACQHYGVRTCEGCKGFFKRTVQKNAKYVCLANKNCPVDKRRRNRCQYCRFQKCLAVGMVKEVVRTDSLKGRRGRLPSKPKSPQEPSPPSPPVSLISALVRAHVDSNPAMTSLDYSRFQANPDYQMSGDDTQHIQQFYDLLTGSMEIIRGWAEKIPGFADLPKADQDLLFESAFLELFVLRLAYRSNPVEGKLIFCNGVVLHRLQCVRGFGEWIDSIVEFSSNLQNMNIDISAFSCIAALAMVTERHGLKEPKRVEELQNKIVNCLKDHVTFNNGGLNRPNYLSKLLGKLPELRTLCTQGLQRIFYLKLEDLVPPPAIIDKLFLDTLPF
T2 sequence (P04386 1-147 partner limits assumed): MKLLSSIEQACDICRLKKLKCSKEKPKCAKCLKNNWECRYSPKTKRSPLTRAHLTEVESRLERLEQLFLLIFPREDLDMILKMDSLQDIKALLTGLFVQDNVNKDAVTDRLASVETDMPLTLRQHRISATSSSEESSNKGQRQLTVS

T1 sequence (P19793 whole entry, the tested form may be a part): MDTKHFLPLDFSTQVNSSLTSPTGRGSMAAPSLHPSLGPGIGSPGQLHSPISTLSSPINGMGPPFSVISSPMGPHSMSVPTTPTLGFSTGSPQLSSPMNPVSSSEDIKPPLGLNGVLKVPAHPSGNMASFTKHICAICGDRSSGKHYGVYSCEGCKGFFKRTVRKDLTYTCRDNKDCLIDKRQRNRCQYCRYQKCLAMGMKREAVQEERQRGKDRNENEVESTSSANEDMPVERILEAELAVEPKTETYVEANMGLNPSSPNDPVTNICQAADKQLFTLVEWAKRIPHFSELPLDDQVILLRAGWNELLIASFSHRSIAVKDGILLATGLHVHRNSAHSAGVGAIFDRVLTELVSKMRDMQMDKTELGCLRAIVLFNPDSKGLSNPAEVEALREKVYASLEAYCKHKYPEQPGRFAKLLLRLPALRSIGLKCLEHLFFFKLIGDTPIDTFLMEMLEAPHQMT
T1 sequence (P43354 whole entry partner, the tested form may be a part): as the sequence (P43354 whole entry partner, the tested form may be a part) above
T1 sequence (P04386 1-147 partner limits assumed): as the sequence (P04386 1-147 partner limits assumed) above

| Emax [1] | pEC50 [1] | Emax [2] | pEC50 [2] | melting point | Compound |
| --- | --- | --- | --- | --- | --- |
| 110% | 7.42 | 93% | 7.19 | 66 to 71 °C | CC1(C)CN(c2cccc(N3CC(C(=O)O)C3)c2)c2ccc(Cl)cc2O1 [Example 224, 1-[3-(7-chloro-2,2-dimtethyl-3H-1,4-benzoxazin-4-yl)phenyl]azetidine-3-carboxylic acid] |
| 104% | 7.11 | 93% | 6.74 | 68 to 78 °C | Cc1ccc2c(c1)OC(C)(C)CN2c1cccc(N2CC(C(=O)O)C2)c1 [Example 227, 1-[3-(2,2,7-trimethyl-3H-1,4-benzoxazin-4-yl)phenyl]azetidine-3-carboxylic acid] |
| 104% | 6.61 | 104% | 6.38 | 67 to 71 °C | CC1(C)CN(c2cccc(N3CC(C(=O)O)C3)c2)c2ccc(C3CC3)cc2O1 [Example 229, 1-[3-(7-cyclopropyl-2,2-dimethyl-3H-1,4-benzoxazin-4yl)phenyl]azetidine-3-carboxylic acid] |
| 97% | 6.41 | 99% | 6.33 | 48 to 51 °C | CC(C)c1ccc2c(c1)OCCN2c1cccc(N2CC(C(=O)O)C2)c1 [Example 232, 1-[3-(7-isopropyl-2,3-dihydro-1,4-benzoxazin-4-yl)phenyl]azetidine-3-carboxylic acid] |
| 97% | 5.80 | 52% | 5.82 | 54 to 56 °C | COc1ccc2c(c1)OC(C)(C)CN2c1cccc(N2CC(C(=O)O)C2)c1 [Example 233, 1-[3-(7-methoxy-2,2-dimethyl-3H-1,4-benzoxazin-4-yl)phenyl]azetidine-3-catboxylic aicd] |
| 95% | 5.77 | 81% | 5.65 | 64 to 68 °C | CC(C)c1ccc2c(c1)OC(C)(C)CCN2c1cccc(N2CC(C(=O)O)C2)c1 [Example 234, 1-[3-(8-isopropyl-2,2-dimethyl-3,4-dihydro-1,5-benzoxazepin-5-yl)phenyl]azetidine-3-carboxylic acid] |
| 96% | 7.89 | 94% | 7.28 | 86 to 96 °C | CC(C)CC1Oc2cc(C(F)(F)F)ccc2N(c2cccc(N3CC(C(=O)O)C3)c2)C1=O (centres unmarked) [Example 246, 1-[3-[2-isobutyl-3-oxo-7-(trifluoromethyl)-1,4-benzoxazin-4-yl]phenyl]azetidine-3-carboxylic acid] |
| 100% | 7.72 | 92% | 7.37 | 73 to 85 °C | CCC1(CC)Oc2cc(C(F)(F)F)ccc2N(c2cccc(N3CC(C(=O)O)C3)c2)C1=O [Example 247, 1-[3-[2,2-diethyl-3-oxo-7-(trifluoromethyl)-1,4-benzoxazin-4-yl]phenyl]azetidine-3-carboxylic acid] |
| 105% | 7.66 | 92% | 6.50 | 78 to 87 °C | CC(C)C1Oc2cc(C(F)(F)F)ccc2N(c2cccc(N3CC(C(=O)O)C3)c2)C1=O (centres unmarked) [Example 248, 1-[3-[2-isopropyl-3-oxo-7-(trifluoromethyl)-1,4-benzoxazin-4-yl]phenyl]azetidine-3-carboxylic acid] |
| 95% | 6.61 | 83% | 6.26 | 78 to 91 °C | Cc1ccc2c(c1)OC(C)(C)C(=O)N2c1cccc(N2CC(C(=O)O)C2)c1 [Example 249, 1-[3-(2,2,7-trimethyl-3-oxo-1,4-benzoxazin-4-yl)phenyl]azetidine-3-carboxylic acid] |
| 98% | 6.54 | 83% | 6.54 | 178 to 198 °C | CC1(C)Oc2cc(C(C)(C)C)ccc2N(c2cccc(N3CC(C(=O)[O-])C3)c2)C1=O.[Na+] [Example 250, sodium 1-[3-(7-tert-butyl-2,2-dimethyl-3-oxo-1,4-benzoxazin-4-yl)phenyl]azetidine-3-carboxylate] |
| 93% | 6.29 | 88% | 6.12 | 104 to 108 °C | CC(C)c1ccc2c(c1)OC(C)(C)C(=O)N2c1cccc(N2CC(C(=O)O)C2)c1 [Example 251, 1-[3-(7-isopropyl-2,2-dimethyl-3-oxo-1,4-benzoxazin-4-yl)phenyl]azetidine-3-carboxylic acid] |

Continued, compound first:

| Compound | Emax [1] | pEC50 [1] | Emax [2] | pEC50 [2] | melting point |
| --- | --- | --- | --- | --- | --- |
| CC1(C)Cc2cc(C(F)(F)F)ccc2N(c2cccc(N3CC(C(=O)O)C3)c2)C1 [Example 219, 1-[3-[3,3-dimethyl-6-(trifluoromethyl)-2,4-dihydroquinolin-1-yl]phenyl]azetidine-3-carboxylic acid] | 105% | 8.30 | 110% | 7.49 | 66 to 84 °C |
| O=C(O)C1CN(c2cccc(N3CCCc4cc(C(F)(F)F)ccc43)c2)C1 [Example 220, 1-[3-[6-(trifluoromethyl)-3,4-dihydro-2H-quinolin-1-yl]phenyl]azetidine-3-carboxylic acid] | 92% | 8.22 | 90% | 7.85 | 57 to 62 °C |
| CC(C)c1ccc2c(c1)CCCN2c1cccc(N2CC(C(=O)[O-])C2)c1.[Na+] [Example 221, sodium 1-[3-(6-isopropyl-3,4-dihydro-2H-1uinolin-1-yl)phenyl]azetidine-3-carboxylate] | 97% | 7.17 | 92% | 6.64 | 49 to 52 °C |
| CC(C)C1CN(c2cccc(N3CC(C(=O)O)C3)c2)c2ccc(C(F)(F)F)cc2O1 (centres unmarked) [Example 223, 1-[3-[2-isopropyl-7-(trifluoromethyl)-2,3-dihydro-1,4-benzoxazin-4-yl]phenyl]azetidine-3-carboxylic acid] | 80% | 7.60 | 81% | 7.32 | 64 to 71 °C |
| CC1(C)CN(c2cccc(N3CC(C(=O)O)C3)c2)c2ccc(OC(F)(F)F)cc2O1 [Example 226, 1-[3-[2,2-dimethyl-7-(trifluoromethyoxy)-3H-1,4-benzoxazin-4-yl]phenyl]azetidine-3-carboxylic acid] | 103% | 7.15 | 106% | 6.81 | 69 to 76 °C |
| CCc1ccc2c(c1)OC(C)(C)CN2c1cccc(N2CC(C(=O)[O-])C2)c1.[Na+] [Example 235, sodium 1-[3-(7-ethyl-2,2-dimethyl-3H-1,4-benzoxazin-4-yl)phenyl]azetidine-3-carboxylate] | 102% | 7.04 | 107% | 6.76 | 160 to 188 °C |
| COc1cc(N2CC(C(=O)O)C2)cc(N2CC(C)(C)Oc3cc(C(F)(F)F)ccc32)c1 [Example 236, 1-[3-[2,2-dimethyl-7-(trifluoromethyl)-3H-1,4-benzoxazin-4-yl]-5-methoxyphenyl]azetidine-3-carboxylic acid] | 93% | 7.68 | 98% | 7.20 | 70 to 75 °C |
| Cc1ccc(N2CC(C(=O)O)C2)cc1N1CC(C)(C)Oc2cc(C(F)(F)F)ccc21 [Example 237, 1-[3-[2,2-dimethyl-7-(trifluoromethyl)-3H-1,4-benzoxazin-4-yl]-4-methylphenyl]azetidine-3-carboxylic acid] | 82% | 7.24 | 77% | 6.59 | 74 to 83 °C |
| Cc1c(N2CC(C(=O)O)C2)cccc1N1CC(C)(C)Oc2cc(C(F)(F)F)ccc21 [Example 238] | 86% | 6.99 | 82% | 6.81 | 168 to 171 °C |
| Cc1ccc(N2CC(C)(C)Oc3cc(C(F)(F)F)ccc32)cc1N1CC(C(=O)O)C1 [Example 239, 1-[5-[2,2-dimethyl-7-(trifluoromethyl)-3H-1,4-benzoxazin-4-yl]2-methylphenyl]azetidine-3-carboxylic acid] | 118% | 6.63 | 102% | 5.21 | 96 to 99 °C |
| CC1(C)CN(c2cccc(N3CC(C(=O)[O-])C3)c2)c2ncc(C(F)(F)F)cc2O1.[Na+] [Example 241, sodium 1-[3-[2,2-dimethyl-7-(trifluoromethyl)-3H-pyrido[3,2-b][1,4]oxazin-4-yl]phenyl]-azetidine-3-carboxylate] | 100% | 6.96 | 107% | 6.71 | 123 to 139 °C |
| CC1(C)CN(c2cccc(N3CC(C(=O)[O-])C3)c2)c2cnc(C(F)(F)F)cc2O1.[Na+] [Example 242, sodium 1-[3-[2,2-dimethyl-7-(trofluoromethyl)-3H-pyrido[4,3-b][1,4]ozaxin-4-yl]phenyl]azetidine-3-carboxylate] | 84% | 6.64 | 76% | 6.52 | 149 to 155 °C |
| CC1(C)Cc2cc(Cl)ccc2N(c2cccc(N3CC(C(=O)[O-])C3)c2)C1.[Na+] [Example 243, sodium 1-[3-(6-chloro-3,3-dimethyl-2,4-dihydroquinolin-1-yl)phenyl]azetidine-3-carboxylate] | 83% | 7.24 | 89% | 7.47 | 70 to 80 °C |
